27 molecules from patent US20070072831A1, “Integrase inhibitor compounds” (GILEAD SCIENCES, INC., priority 2005, published 2007) can be followed below.

The subject of one assay is HIV-IIIb. Kind of assay: Antiviral assay in MT-4 cells infected with HIV-IIIb. Type of assay: cell-based. The conditions noted are these: MT4, 120 h, read-out: EC50 Range MT-4. As to the method: See: Wolfe, etal J. Virol.
Antiviral Assays in MT2 and MT4 Cells
For the antiviral assay utilizing MT-2 cells, 50 μl of 2× test concentration of 5-fold serially diluted compound in culture medium with 10% FBS was added to each well of a 96-well plate (9 concentrations) in triplicate. MT-2 cells were infected with HIV-IIIb at a multiplicity of infection (m.o.i) of 0.01 for 3 hours. Fifty microliters of infected cell suspension in culture medium with 10% FBS (˜1.5×10^4 cells) was then added to each well containing 50 μl of diluted compound. The plates were then incubated at 37° C. for 5 days. For the antiviral assay utilizing MT-4 cells, 20 μl of 2× test concentration of 5-fold serially diluted compound in culture medium with 10% FBS was added to each well of a 384-well plate (7 concentrations) in triplicate. MT-4 cells were next mixed with HIV-IIIb at an m.o.i. of 0.1 and 20 μl of virus/cell mixture (˜2000 cells) was immediately added to each well containing 20 μl of diluted compound. The plates were then incubated at 37° C. for 5 days. After 5 days of incubation, 100 μl of CellTiter-Glo™ Reagent (catalog # G7571, Promega Biosciences, Inc., Madison, Wis.) was added to each well containing MT-2 cells and 40 μl to each well containing MT-4 cells. Cell lysis was carried out by incubating at room temperature for 10 min and then chemiluminescence was read.

For a further assay, the target named is HIV integrase (Human immunodeficiency virus type 1 group M subtype B, UniProt P04585). Kind of assay: biochemical.

Like-named read-outs stand apart in the source and are kept apart here.

Protocol for HIV integrase: Representative compounds of the invention were tested for biological activity by methods including anti-HIV assay, measuring inhibition of HIV-integrase strand transfer catalysis, and cytotoxicity.
HIV Integrase Assay (IC50 Determination)
The HIV Integrase assay is carried out in Reacti-Bind High Binding Capacity Streptavidin coated plates (Pierce # 15502) in 100 μl reactions. The wells of the plate are rinsed once with PBS. Each well is then coated at room temperature for 1 h with 100 μl of 0.14 μM Donor DNA with the following sequence:
After coating, the plate was washed twice with PBS. 3′processing of the Donor DNA is started by adding 80 μl of Integrase/buffer mixture (25 mM HEPES, pH 7.3, 12.5 mM DTT, 93.75 mM NaCl, 12.5 mM MgCl2, 1.25% Glycerol, 0.3125 uM integrase) to each well. 3′processing is allowed to proceed for 30 min at 37° C., after which, 10 μl of test compound and 10 μl of 2.5 uM DIG-labeled Target DNA with the following sequence:
are added to each well to allow strand transfer to proceed for 30 min at 37° C. The plate is then washed three times with 2×SSC for 5 min and rinsed once with PBS. For detection of integrated product, 100 μl of a 1/2000 dilution of HRP-conjugated anti-DIG antibody (Pierce #31468) are added to each well and incubated for 1 hour. The plate was then washed three times for 5 min each, with 0.05% Tween-20 in PBS. For signal development and amplification, 100 μl of SuperSignal ELISA Femto Substrate (Pierce #37075) are added to each well. Chemiluminescence (in relative light units) is read immediately at 425 nm in the SPECTRAmax GEMINI Microplate Spectrophotometer using the end point mode at 5 sec per well.
For IC50 determinations, eight concentrations of test compounds in a 1/2.2 dilution series are used.

In the case of `CN(c1c2c(c(O)c3ncccc13)C(=O)N(Cc1c(F)cccc1F)C2)S(C)(=O)=O` [Compound 195, N-(7-(2,6-difluorobenzyl)-9-hydroxy-8-oxo-7,8-dihydro-6H-pyrrolo[3,4-g]quinolin-5-yl)-N-methylmethanesulfonamide], the EC50 with HIV-IIIb (MT-4 cells, HIV-IIIb, 5 days) was in the range of 60 to 1000 nM. Also, the IC50 on HIV integrase lay within 60 to 1000 nM.
With `CN(c1c2c(c(O)c3ncccc13)C(=O)N(Cc1ccc(F)cc1)C2)S(=O)(=O)CCCN1CCOCC1` [Compound 46, N-(7-(4-fluorobenzyl)-9-hydroxy-8-oxo-7,8-dihydro-6H-pyrrolo[3,4-g]quinolin-5-yl)-N-methyl-3-morpholinopropane-1-sulfonamide], the concentration giving a half-maximal response (EC50) in the assay with HIV-IIIb (MT-4 cells, HIV-IIIb, 5 days) is below 60 nM.
As to `O=C1c2c(c(N3CCNS3(=O)=O)c3cccnc3c2O)CN1Cc1ccc(F)cc1` [Compound 214], the concentration for a half-maximal effect (EC50) in the assay on HIV-IIIb (MT-4 cells, HIV-IIIb, 5 days) is below 60 nM. Also, on HIV integrase, the concentration for half-maximal inhibition (IC50) was below 60 nM.
`CN(c1c2c(c(O)c3ncccc13)C(=O)N(Cc1ccc(F)c(Cl)c1F)C2)S(C)(=O)=O` [Compound 199, N-(7-(3-chloro-2,4-difluorobenzyl)-9-hydroxy-8-oxo-7,8-dihydro-6H-pyrrolo[3,4-g]quinolin-5-yl)-N-methylmethanesulfonamide]: the 50% effective concentration (EC50) with HIV-IIIb (MT-4 cells, HIV-IIIb, 5 days) is below 60 nM. The IC50 on HIV integrase was in the range of 60 to 1000 nM.
For the molecule `CN(C)C(=O)c1cc(F)ccc1CN1Cc2c(c(O)c3ncccc3c2N(C)S(C)(=O)=O)C1=O` [Compound 90, 5-fluoro-2-((9-hydroxy-5-(N-methylmethylsulfonamido)-8-oxo-6H-pyrrolo[3,4-g]quinolin-7(8H)-yl)methyl)-N,N-dimethylbenzamide], the concentration giving a half-maximal response (EC50) in the assay on HIV-IIIb (MT-4 cells, HIV-IIIb, 5 days) is below 60 nM. On HIV integrase, the half-inhibitory concentration (IC50) lay within 60 to 1000 nM.
The corresponding values for `CN(C)S(=O)(=O)N(C)c1c2c(c(O)c3ncccc13)C(=O)N(Cc1ccc(F)cc1)C2` [Compound 38, N-(7-(4-fluorobenzyl)-9-hydroxy-8-oxo-7,8-dihydro-6H-pyrrolo[3,4-g]quinolin-5-yl)-N,N′,N′-trimethylsulfamide] are below 60 nM and 60 to 1000 nM.
For `C[C@H]1c2c(c(O)c3ncccc3c2N(C)S(C)(=O)=O)C(=O)N1Cc1ccc(F)cc1` (single isomer, unassigned) [Compound 75], the EC50 with HIV-IIIb (MT-4 cells, HIV-IIIb, 5 days) is below 60 nM. Also, the IC50 on HIV integrase was below 60 nM.
In the case of `CN(c1c2c(c(O)c3ncccc13)C(=O)N(Cc1ccc(F)cc1Cl)C2)S(C)(=O)=O` [Compound 147, N-(7-(2-chloro-4-fluorobenzyl)-9-hydroxy-8-oxo-7,8-dihydro-6H-pyrrolo[3,4-g]quinolin-5-yl)-N-methylmethanesulfonamide], in the assay on HIV-IIIb (MT-4 cells, HIV-IIIb, 5 days), the EC50 was below 60 nM. At HIV integrase, this molecule yielded an IC50 below 60 nM.
For the molecule `CN(c1c2c(c(O)c3ncccc13)C(=O)N(Cc1cc(Cl)c(F)cc1F)C2)S(C)(=O)=O` [Compound 204, N-(7-(5-chloro-2,4-difluorobenzyl)-9-hydroxy-8-oxo-7,8-dihydro-6H-pyrrolo[3,4-g]quinolin-5-yl)-N-methylmethanesulfonamide], in the assay with HIV-IIIb (MT-4 cells, HIV-IIIb, 5 days), the EC50 is below 60 nM. In addition, the IC50 on HIV integrase is below 60 nM.
Turning to `CN1CCCN(c2c3c(c(O)c4ncccc24)C(=O)N(Cc2ccc(F)cc2)C3)C1=O` [Compound 224, 7-(4-fluorobenzyl)-9-hydroxy-5-(3-methyl-2-oxo-tetrahydropyrimidin-1(2H)-yl)-6,7-dihydropyrrolo[3,4-g]quinolin-8-one], in the assay on HIV-IIIb, the EC50 fell in the range of 60 to 1000 nM. The IC50 at HIV integrase was below 60 nM.
Turning to `CC(C)C(=O)Nc1c2c(c(O)c3ncccc13)C(=O)N(Cc1ccc(F)cc1)C2` [Compound 67, N-(7-(4-fluorobenzyl)-9-hydroxy-8-oxo-7,8-dihydro-6H-pyrrolo[3,4-g]quinolin-5-yl)isobutyramide], the concentration for a half-maximal effect (EC50) in the assay with HIV-IIIb (MT-4 cells, HIV-IIIb, 5 days) was below 60 nM. In addition, the IC50 against HIV integrase was below 60 nM.
Take `CN(c1c2c(c(O)c3ncccc13)C(=O)N(Cc1ccc(F)c(F)c1)C2)S(C)(=O)=O` [Compound 179, N-(7-(3,4-difluorobenzyl)-9-hydroxy-8-oxo-7,8-dihydro-6H-pyrrolo[3,4-g]quinolin-5-yl)-N-methylmethanesulfonamide]: in the assay with HIV-IIIb (MT-4 cells, HIV-IIIb, 5 days), the EC50 was below 60 nM. The IC50 at HIV integrase was below 60 nM.
As for `CN(c1c2c(c(O)c3ncccc13)C(=O)N(Cc1cccc(Cl)c1)C2)S(C)(=O)=O` [Compound 175, N-(7-(3-chlorobenzyl)-9-hydroxy-8-oxo-7,8-dihydro-6H-pyrrolo[3,4-g]quinolin-5-yl)-N-methylmethanesulfonamide], the EC50 in the assay on HIV-IIIb (MT-4 cells, HIV-IIIb, 5 days) was below 60 nM. In addition, the IC50 against HIV integrase was 60 to 1000 nM.
`CCN(c1c2c(c(O)c3ncccc13)C(=O)N(Cc1ccc(F)cc1)C2)S(C)(=O)=O` [Compound 78, N-ethyl-N-(7-(4-fluorobenzyl)-9-hydroxy-8-oxo-7,8-dihydro-6H-pyrrolo[3,4]quinolin-5-yl)methanesulfonamide]: the EC50 in the assay on HIV-IIIb (MT-4 cells, HIV-IIIb, 5 days) was below 60 nM. In addition, the 50% inhibitory concentration (IC50) against HIV integrase is below 60 nM.
On to `CN(C)C(=O)N(C)c1c2c(c(O)c3ncccc13)C(=O)N(Cc1ccc(F)cc1)C2` [Compound 171, 1-(7-(4-fluorobenzyl)-9-hydroxy-8-oxo-7,8-dihydro-6H-pyrrolo[3,4-g]quinolin-5-yl)-1,3,3-trimethylurea], for which the concentration for a half-maximal effect (EC50) in the assay with HIV-IIIb (MT-4 cells, HIV-IIIb, 5 days) is below 60 nM. At HIV integrase, this molecule came in with an IC50 below 60 nM.
For the molecule `Cc1nc(C)c(S(=O)(=O)N(C)c2c3c(c(O)c4ncccc24)C(=O)N(Cc2ccc(F)cc2)C3)s1` [Compound 58, N-(7-(4-fluorobenzyl)-9-hydroxy-8-oxo-7,8-dihydro-6H-pyrrolo[3,4-g]quinolin-5-yl)-N,2,4-trimethylthiazole-5-sulfonamide], the EC50 in the assay on HIV-IIIb (MT-4 cells, HIV-IIIb, 5 days) is below 60 nM. Besides, at HIV integrase, the IC50 is 60 to 1000 nM.
On to `CN(c1c2c(c(O)c3ncccc13)C(=O)N(Cc1cc(F)ccc1F)C2)S(C)(=O)=O` [Compound 191, N-(7-(2,5-difluorobenzyl)-9-hydroxy-8-oxo-7,8-dihydro-6H-pyrrolo[3,4-g]quinolin-5-yl)-N-methylmethanesulfonamide], for which, in the assay on HIV-IIIb (MT-4 cells, HIV-IIIb, 5 days), the EC50 was below 60 nM. Moreover, the IC50 at HIV integrase fell in the range of 60 to 1000 nM.
The corresponding values for `CC(=O)N(C)c1c2c(c(O)c3ncccc13)C(=O)N(Cc1ccc(F)cc1)C2` [Compound 64, N-(7-(4-fluorobenzyl)-9-hydroxy-8-oxo-7,8-dihydro-6H-pyrrolo[3,4-g]quinolin-5-yl)-N-methylacetamide] are below 60 nM and below 60 nM.
For `CN(c1c2c(c(O)c3ncccc13)C(=O)N(Cc1ccc(F)cc1)C2(C)C)S(C)(=O)=O` [Compound 71, N-(7-(4-fluorobenzyl)-9-hydroxy-6,6-dimethyl-8-oxo-7,8-dihydro-6H-pyrrolo[3,4-g]quinolin-5-yl)-N-methylmethanesulfonamide], in the assay on HIV-IIIb (MT-4 cells, HIV-IIIb, 5 days), the EC50 was below 60 nM. The same molecule had a 50% inhibitory concentration (IC50) on HIV integrase of 60 to 1000 nM.
As for `CN(C)C(=O)C(=O)N(C)c1c2c(c(O)c3ncccc13)C(=O)N(Cc1ccc(F)cc1)C2` [Compound 62, N1-(7-(4-fluorobenzyl)-9-hydroxy-8-oxo-7,8-dihydro-6H-pyrrolo[3,4-g]quinolin-5-yl)-N1,N2,N2-trimethyloxalamide], the EC50 with HIV-IIIb (MT-4 cells, HIV-IIIb, 5 days) was below 60 nM. Besides, on HIV integrase, the 50% inhibitory concentration (IC50) is 60 to 1000 nM.
For the molecule `O=C1c2c(c(N3CCCS3(=O)=O)c3cccnc3c2O)CN1Cc1ccc(F)cc1` [Compound 52, N-(7-(4-fluorobenzyl)-9-hydroxy-8-oxo-7,8-dihydro-6H-pyrrolo[3,4-g]quinolin-5-yl)-N-2-dioxoisothiazolidine], in the assay on HIV-IIIb (MT-4 cells, HIV-IIIb, 5 days), the EC50 was below 60 nM. Also, on HIV integrase, the IC50 was below 60 nM.
`CN(c1c2c(c(O)c3ncccc13)C(=O)N(Cc1ccc(F)cc1)C2)S(=O)(=O)CCCn1ccnc1` [Compound 49, N-(7-(4-fluorobenzyl)-9-hydroxy-8-oxo-7,8-dihydro-6H-pyrrolo[3,4-g]quinolin-5-yl)-3-(1 H-imidazol-1-yl)-N-methylpropane-1-sulfonamide]: the EC50 in the assay on HIV-IIIb (MT-4 cells, HIV-IIIb, 5 days) is below 60 nM.
With `CN(c1c2c(c(O)c3ncccc13)C(=O)N(Cc1ccc(F)cc1)C2)S(=O)(=O)CCN1CCNCC1` [Compound 164, N-(7-(4-fluorobenzyl)-9-hydroxy-8-oxo-7,8-dihydro-6H-pyrrolo[3,4-g]quinolin-5-yl)-N-methyl-2-(piperazin-1-yl)ethanesulfonamide], the concentration giving a half-maximal response (EC50) in the assay with HIV-IIIb (MT-4 cells, HIV-IIIb, 5 days) lay within 60 to 1000 nM. Further, the IC50 against HIV integrase lay within 60 to 1000 nM.
`O=C1c2c(c(N3C(=O)CCC3=O)c3cccnc3c2O)CN1Cc1ccc(F)cc1` [Compound 226, 1-(7-(4-fluorobenzyl)-9-hydroxy-8-oxo-7,8-dihydro-6H-pyrrolo[3,4-g]quinolin-5-yl)pyrrolidine-2,5-dione]: the EC50 with HIV-IIIb (MT-4 cells, HIV-IIIb, 5 days) was below 60 nM. The molecule also yielded a half-inhibitory concentration (IC50) on HIV integrase below 60 nM.
Turning to `CN(C)CCS(=O)(=O)N(C)c1c2c(c(O)c3ncccc13)C(=O)N(Cc1ccc(F)cc1)C2` [Compound 60, N-(7-(4-fluorobenzyl)-9-hydroxy-8-oxo-7,8-dihydro-6H-pyrrolo[3,4-g]quinolin-5-yl)-N-methyl-2-dimethylaminoethane-1-sulfonamide], in the assay with HIV-IIIb (MT-4 cells, HIV-IIIb, 5 days), the concentration giving a half-maximal response (EC50) was below 60 nM. The molecule further showed a half-inhibitory concentration (IC50) against HIV integrase below 60 nM.
Turning to `CN(c1c2c(c(O)c3ncccc13)C(=O)N(Cc1ccc(F)cc1)C2)S(=O)(=O)CCCC#N` [Compound 48, 3-cyano-N-(7-(4-fluorobenzyl)-9-hydroxy-8-oxo-7,8-dihydro-6H-pyrrolo[3,4-g]quinolin-5-yl)-N-methylpropane-1-sulfonamide], the 50% effective concentration (EC50) in the assay on HIV-IIIb (MT-4 cells, HIV-IIIb, 5 days) was below 60 nM.
`CCNS(=O)(=O)N(CC)c1c2c(c(O)c3ncccc13)C(=O)N(Cc1ccc(F)cc1)C2` [Compound 232]: the EC50 with HIV-IIIb (MT-4 cells, HIV-IIIb, 5 days) is below 60 nM.
